Results: patent publication US9604974B2, “Compounds as modulator of JAK-STAT pathway, methods and applications thereof” (UNIVERSITY OF MYSORE, priority 2015, dated 2017)

Experiments:
HepG2 cells = assay: CXCL12-induced wound migration assay; type: cell-based, human; settings: 5 μM CIMO, presence and absence of CXCL12, versus controls
Description: STAT3 targeted gene products are known to be involved in cancer cell migration. FIG. 5A interprets the movement of cancer cells in the presence and absence of CIMO and C—X—C motif chemokine 12 (CXCL12) protein. CXCL12 is a chemokine which essentially stimulates the swift migration of cancer cells. An IBIDI culture insert (IBIDI GmbH) is developed with two reservoirs separated by a 500 μm thick wall created by a culture insert in a 35 mm petri dish. 70 μl of HepG2 cells (5×10^5 cells/ml) are added into the two reservoirs of the same insert and incubated at about 37° C. After 12 hours, the insert is gently removed by creating a gap of ˜500 μm. The cells are treated with about 5 μM CIMO for about 8 hours before being exposed to about 100 ng/mL CXCL12 for about 24 hours. Width of wound is measured at time zero and 24 hours of incubation with and without CIMO in the absence or presence of CXCL12. Graphs are plotted against the percentage of migration or distance the cells moved before and after treatment, normalized to control.

PLC/PRF5 = assay: MTT anti-proliferative assay, PLC/PRF5; type: cell-based; settings: Homo sapiens, PLC-PRF-5
Description: (§1) The anti-proliferative activity of Formula I compounds are studied on HepG2 cells using MTT assay. Briefly, the cells (2.5×10^4/ml) are incubated in triplicate in a 96-well plate in the presence or absence of different concentrations of compounds in a final volume of 0.2 ml up to 72 hours at 37° C. Thereafter, 20 μl MTT solution (5 mg/ml in PBS) is added to each well. After 2 hours of incubation at 37° C., 0.1 ml lysis buffer (20% SDS, 50% dimethyl-formamide) is added; incubation is continued overnight at 37° C.; and the optical density (OD) at 570 nm is measured by Tecan plate reader.
(§2) Additionally, Compound 1 is tested on a panel of six cell lines including Hep3B, PLC/PRF5, AGS (gastric cancer cell line), DU145 (prostrate cancer cell line), MDA MB231 (breast cancer cell line) and CAL27 (head and neck cancer cell line) cells.

STAT3 [1] = assay: IL-6 induced STAT3 phosphorylation in Hep3B; type: cell-based; settings: 10 μMol/L CIMO, IL-6 10 ng/mL
Description: FIG. 3 depicts comparative study of cell viability between STAT3-siRNA transfected and Compound 1 (CIMO) treated HepG2 cells [A]. Correspondingly, Western Blot analysis is used to assess the levels of phospho-STAT3 and STAT3 in HepG2 cells with siRNA-mediated depletion STAT3 expression and on exposure to 4 μM CIMO. Whole cell extract is prepared and resolved on SDS-PAGE gel, electrotransferred onto nitrocellulose membrane, and probed for phospho-STAT3 and the same blot is stripped and reprobed with STAT3 antibody and Beta actin to verify equal protein loading. [B] showcases the modulation of STAT3 mediated transcription, α2-M promoter activity by Compound 1 (CIMO) in HepG2 cells. [C] depicts the inhibition of IL-6-induced phosphorylation of STAT3, JAK1 and JAK2 by Compound 1 (CIMO). Hep3B cells (5×10^5/mL) are treated with 10 μMol/L CIMO for the indicated times and then stimulated with IL-6 (10 ng/mL) for about 15 minutes. Whole-cell extracts are then prepared, resolved on SDS-PAGE gel, electrotransferred onto nitrocellulose membrane and probed with phospho-STAT3, phospho-JAK1 and phospho-JAK2 antibodies. The same blot is stripped and reprobed with STAT3, JAK1 and JAK2 antibody to verify equal protein loading. [D] and [E], showcases the suppression of STAT3 regulated gene products involved in cell proliferation and survival by Compound 1 (CIMO). […]

[2] = test system: STAT3 mediated transcription (α2-M promoter); assay: α2-macroglobulin promoter luciferase reporter assay; type: cell-based, human; settings: HepG2, versus DMSO control
Description: Increased STAT3 activity is known to stimulate oncogenicity of hepatocellular carcinoma. Therefore, evaluation of the level of phosphorylated STAT3 (Y705) in HepG2 cells is carried out with siRNA-mediated deletion of STAT3 transcripts and/or exposure to CIMO, using Western Blot analysis. Experiments related to transient-transfection of STAT3 siRNA in HepG2 cells and STAT3 mediated Transcription activity are performed wherein 60-70% confluent of cells in a 6-well plate are transfected using FuGENE6 (Roche Molecular Biochemicals, Indianapolis, USA) transfection reagent. Luciferase assay is performed using Dual Luciferase Assay Kit (Promega Corp, Singapore). Transfections are carried out in triplicate using 1 μg of the appropriate α-2 macroglobulin luciferase reporter plasmid and empty vector per transfection along with 0.2 μg of Renilla expression plasmid as control for transfection efficiency. Luciferase activities are assayed 48 hours after transfection using the dual Luciferase Assay System (Promega Corp, Singapore)
In addition, assessment of STAT3 mediated transcriptional activity using an α2-macroglobulin (α2-M) promoter in HepG2 cells with either siRNA-mediated depletion of STAT3 expression or on exposure to CIMO is carried out as described above (FIG. 3B).

STAT3 [3] = assay: STAT3 DNA binding TransAM ELISA on nuclear extracts; type: cell-based, human; settings: HepG2 nuclear extracts, 10 μMol/L CIMO
Description: It is further investigated whether CIMO modulates STAT3 DNA binding activity in HepG2 cells, since it is known that STAT3 dimer translocates into the nucleus and binds to specific DNA nucleotide sequence to regulate gene expression. DNA binding assay is performed using a STAT3 DNA binding TransAM™ ELISA kit (Active Motif, Carlsbad, Calif., USA). Briefly, nuclear extracts (5 μg) from CIMO-treated cells are incubated in a 96-well plate coated with oligonucleotide containing the STAT3-specific DNA probe. Bound STAT3 is then detected by a specific primary antibody. An HRP-conjugated secondary antibody is subsequently applied to detect the bound primary antibody and provided the basis for colorimetric quantification. The enzymatic product is measured at 450 nm with a microplate reader (Tecan Systems, San Jose, Calif., USA). Specificity of this assay is tested by the addition of wild-type or mutated STAT3 consensus oligonucleotide in the competitive or mutated competitive control wells before the addition of the nuclear extracts.

Hep3B = assay: MTT anti-proliferative assay, Hep3B; type: cell-based; settings: Homo sapiens
Description: as §1, §2

JAK1 = assay: Western blot of constitutive phospho-JAK1 in HepG2; type: cell-based, human; settings: HepG2, 10 μMol/L CIMO

α2-M promoter activity [2]: decreased α2-M promoter activity
IC50 (Hep3B): 46.9 µM
SMILES: COc1ccc(C2CNC(c3cn(Cc4ccc(-c5ccccc5C#N)cc4)c4ccccc34)OC23CCCCC3)cc1 (stereo not shown) [Compound 1]
limitation of HepG2 cell migration (HepG2 cells): ~50%
IC50 (PLC/PRF5): 38.8 µM
IL-6 induced phosphorylation of STAT3 (STAT3 [1]): substantially down-regulates
binding of STAT3 to the DNA (STAT3 [3]): suppresses the binding of STAT3 to the DNA in a time-dependent manner
phosphorylation of JAK1 (JAK1): significant inhibition
